# Test results from patent publication US20230233576A1, “ECLITASERTIB FOR USE IN TREATING CONDITIONS INVOLVING SYSTEMIC HYPERINFLAMMATORY RESPONSE” (priority 2020, published 2023).
# Tested on: adult participants hospitalized for severe COVID-19
# Test: Phase 1b severe COVID-19 study: vital signs abnormalities (PCSA)
# Assay type: in vivo, human
# Details: 600 mg, TEAE period
# Procedure: Physical examination including lung auscultation and assessment of consciousness, vital sign, electrocardiogram (ECG) parameters were measured per protocol.
# For laboratory parameters (hematology, clinical chemistry, and urinalysis), vital signs, and ECG, incidences of potentially clinically significant abnormality (PCSA) values, actual values and change from baseline were summarized by treatment group.
# For all laboratory, vital signs and ECG parameters, raw data and change from baseline were summarized in descriptive statistics by treatment group and scheduled time of measurement, with the exception of AST, ALT and alkaline phosphatase: instead of summarizing data in descriptive statistics, participants' profiles were presented through graphics by treatment group and with a color code to identify sites. The reason was that blood samples were processed by local laboratories with different normal ranges. For the rest of clinical laboratory these parameters it is reasonable to pool data as they are standard procedure and no significant differences in normal ranges were expected.
compound,measurement,setting,value
"CN1C(=O)[C@@H](NC(=O)c2nnc(Cc3ccccc3)[nH]2)COc2cccnc21 [RIPK1 Inhibitor, (S)-5-benzyl-N-(5-methyl-4-oxo-2,3,4,5-tetrahydropyrido[3,2-b][1,4]oxazepin-3-yl)-4H-1,2,4-triazole-3-carboxamide]",participants with systolic blood pressure≤95 mmHg and decrease from baseline≥20 mmHg,,4 participants
same,PCSA Diastolic Blood Pressure ≤45 mmHg and decrease from baseline ≥10 mmHg,Safety population,1/47
same,PCSA Diastolic Blood Pressure ≥110 mmHg and increase from baseline ≥10 mmHg,Safety population,0/47
same,PCSA Heart Rate ≤50 beats/min and decrease from baseline ≥20 beats/min,Safety population,0/47
same,PCSA Heart Rate ≥120 beats/min and increase from baseline 20 beats/min,Safety population,1/47
same,PCSA Systolic Blood Pressure ≤95 mmHg and decrease from baseline ≥20 mmHg,Safety population,4/47
same,PCSA Systolic Blood Pressure ≥160 mmHg and increase from baseline ≥20 mmHg,Safety population,4/47
